Measured values from PubChem BioAssay (NCI).
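1) Cells in 96-well plates. 2) Compound, 48 h, 5 concentrations. 3) Linear interpolation between surrounding doses. 4) Unreached endpoint = highest concentration. TGI marks complete inhibition of growth.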

What was measured:
Test in all cases: NCI tumour cell line growth inhibition, 48 h
[1] = tested on: DLD-1 colon
[2] = tested on: OVCAR-3 ovarian
[3] = tested on: LXFL 529 NSCLC
[4] = tested on: RXF-631 renal
[5] = tested on: SNB-75 CNS
[6] = tested on: OVCAR-8 ovarian
[7] = tested on: SN12C renal
[8] = tested on: SK-OV-3 ovarian
[9] = tested on: SF-268 CNS
[10] = tested on: M19-MEL melanoma
[11] = tested on: TK-10 renal
[12] = tested on: MALME-3M melanoma
[13] = tested on: LOX IMVI melanoma
[14] = tested on: UO-31 renal
[15] = tested on: XF 498 CNS
[16] = tested on: KM12 colon
[17] = tested on: U251 CNS
[18] = tested on: OVCAR-5 ovarian
[19] = tested on: UACC-257 melanoma
[20] = tested on: HCT-15 colon
[21] = tested on: HOP-92 NSCLC
[22] = tested on: SK-MEL-2 melanoma
[23] = tested on: DMS 273 small cell lung
[24] = tested on: SW-620 colon
[25] = tested on: M14 melanoma
[26] = tested on: HCC-2998 colon
[27] = tested on: 786-0 renal
[28] = tested on: IGROV1 ovarian
[29] = tested on: HT29 colon
[30] = tested on: MOLT-4 leukemia
[31] = tested on: NCI-H23 lung
[32] = tested on: SF-539 CNS
[33] = tested on: CCRF-CEM leukemia
[34] = tested on: DMS 114 small cell lung
[35] = tested on: ACHN renal
[36] = tested on: K-562 leukemia
[37] = tested on: SNB-78 CNS
[38] = tested on: SF-295 CNS
[39] = tested on: A498 renal
[40] = tested on: HL-60(TB) leukemia
[41] = tested on: NCI-H460 lung
[42] = tested on: HCT-116 colon
[43] = tested on: HOP-62 NSCLC
[44] = tested on: UACC-62 melanoma
[45] = tested on: A549 NSCLC
[46] = tested on: SK-MEL-28 melanoma
[47] = tested on: SNB-19 CNS
[48] = tested on: COLO 205 colon
[49] = tested on: RPMI-8226 leukemia
[50] = tested on: OVCAR-4 ovarian
[51] = tested on: NCI-H522 lung
[52] = tested on: SK-MEL-5 melanoma
[53] = tested on: CAKI-1 renal
[54] = tested on: SR leukemia
[55] = tested on: NCI-H226 lung
[56] = tested on: KM20L2 colon
[57] = tested on: EKVX NSCLC
[58] = tested on: HOP-18 NSCLC
[59] = tested on: RXF 393 renal

How did the TGI [1] turn out when `CCOC(=O)C(Cc1ccccc1)NC(=O)OC(C)(C)C` (configuration not stated) was run?
Its TGI is greater than 100 µM.

What about the TGI [2] of the same molecule?
The TGI was greater than 100 µM.

What about the TGI [3] of the same molecule?
The TGI was greater than 100 µM.

What about the TGI [4] of the same molecule?
Its TGI is greater than 100 µM.

What about the TGI [5] of the same molecule?
The TGI was greater than 100 µM.

What about the TGI [6] of the same molecule?
Its TGI is greater than 100 µM.

What about the TGI [7] of the same molecule?
The TGI was greater than 100 µM.

What about the TGI [8] of the same molecule?
Its TGI is greater than 100 µM.

What about the TGI [9] of the same molecule?
The TGI was greater than 100 µM.

What about the TGI [10] of the same molecule?
The TGI was greater than 100 µM.

And the TGI [11]?
Its TGI is greater than 100 µM.

What about the TGI [12] of the same molecule?
The TGI was greater than 100 µM.

And the TGI [13]?
The TGI was greater than 100 µM.

What about the TGI [14] of the same molecule?
Its TGI is greater than 100 µM.

And the TGI [15]?
The TGI was greater than 100 µM.

And the TGI [16]?
The TGI was greater than 100 µM.

And the TGI [17]?
Its TGI is greater than 100 µM.

What about the TGI [18] of the same molecule?
The TGI was greater than 100 µM.

What about the TGI [19] of the same molecule?
Its TGI is greater than 100 µM.

And the TGI [20]?
Its TGI is greater than 100 µM.

What about the TGI [21] of the same molecule?
The TGI was greater than 100 µM.

What about the TGI [22] of the same molecule?
Its TGI is greater than 100 µM.

What about the TGI [23] of the same molecule?
Its TGI is greater than 100 µM.

What about the TGI [24] of the same molecule?
Its TGI is greater than 100 µM.

And the TGI [25]?
Its TGI is greater than 100 µM.

And the TGI [26]?
The TGI was greater than 100 µM.

And the TGI [27]?
Its TGI is greater than 100 µM.

What about the TGI [28] of the same molecule?
Its TGI is greater than 100 µM.

What about the TGI [29] of the same molecule?
Its TGI is greater than 100 µM.

What about the TGI [30] of the same molecule?
The TGI was greater than 100 µM.

And the TGI [31]?
The TGI was greater than 100 µM.

And the TGI [32]?
Its TGI is greater than 100 µM.

What about the TGI [33] of the same molecule?
The TGI was greater than 100 µM.

What about the TGI [34] of the same molecule?
The TGI was greater than 100 µM.

What about the TGI [35] of the same molecule?
Its TGI is greater than 100 µM.

What about the TGI [36] of the same molecule?
The TGI was greater than 100 µM.

And the TGI [37]?
The TGI was greater than 100 µM.

What about the TGI [38] of the same molecule?
Its TGI is greater than 100 µM.

What about the TGI [39] of the same molecule?
Its TGI is greater than 100 µM.

What about the TGI [40] of the same molecule?
Its TGI is greater than 100 µM.

And the TGI [41]?
Its TGI is greater than 100 µM.

What about the TGI [42] of the same molecule?
The TGI was greater than 100 µM.

And the TGI [43]?
The TGI was greater than 100 µM.

What about the TGI [44] of the same molecule?
The TGI was greater than 100 µM.

And the TGI [45]?
The TGI was greater than 100 µM.

And the TGI [46]?
The TGI was greater than 100 µM.

And the TGI [47]?
Its TGI is greater than 100 µM.

What about the TGI [48] of the same molecule?
The TGI was greater than 100 µM.

Which results are given for `Cc1ccc(C2(O)CC(c3ccc([N+](=O)[O-])o3)=NN2C(=O)COc2ccccc2Cl)cc1` (configuration not stated)?
TGI [1]: > 100 µM; TGI [2]: 19.9 µM; TGI [3]: 49.2 µM; TGI [4]: > 55.1 µM; TGI [5]: > 75.4 µM; TGI [6]: > 100 µM; TGI [7]: > 49.1 µM; TGI [8]: > 100 µM; TGI [49]: > 31.9 µM; TGI [9]: > 76 µM; TGI [10]: 33.5 µM; TGI [11]: > 86.1 µM; TGI [50]: > 100 µM; TGI [12]: 40.3 µM; TGI [13]: 18.9 µM; TGI [14]: > 100 µM; TGI [51]: > 48.4 µM; TGI [15]: > 100 µM; TGI [52]: 8.54 µM; TGI [16]: > 100 µM; TGI [53]: > 100 µM; TGI [17]: 28.2 µM; TGI [18]: > 91.8 µM; TGI [19]: 53.6 µM; TGI [20]: 24.1 µM; TGI [21]: > 95.3 µM; TGI [22]: 26.4 µM; TGI [23]: > 100 µM; TGI [24]: 72.3 µM; TGI [25]: 15.4 µM; TGI [26]: 38.3 µM; TGI [27]: > 100 µM; TGI [54]: 23.1 µM; TGI [28]: > 100 µM; TGI [29]: > 42 µM; TGI [30]: 96.1 µM; TGI [31]: 33.6 µM; TGI [55]: > 100 µM; TGI [32]: 48.4 µM; TGI [33]: > 100 µM; TGI [56]: > 60 µM; TGI [34]: 80.7 µM; TGI [35]: 63.2 µM; TGI [36]: > 100 µM; TGI [37]: > 100 µM; TGI [38]: > 100 µM; TGI [57]: 28.8 µM; TGI [39]: > 100 µM; TGI [40]: 12.9 µM; TGI [41]: > 31.6 µM; TGI [42]: > 87.4 µM; TGI [43]: 83.5 µM; TGI [44]: 24.5 µM; TGI [45]: > 100 µM; TGI [46]: 45 µM; TGI [47]: > 100 µM; TGI [58]: > 100 µM; TGI [48]: 24.1 µM

Which results are given for `CCCCCCCCCC1C(C)c2c([nH]c3ccccc23)C2C(=O)N(c3ccccc3)C(=O)C21` (configuration not stated)?
TGI [1]: 30.2 µM; TGI [2]: 10.8 µM; TGI [59]: 5.55 µM; TGI [3]: 50.4 µM; TGI [4]: 11.7 µM; TGI [5]: 26.9 µM; TGI [6]: > 100 µM; TGI [8]: 33.5 µM; TGI [11]: 73.5 µM; TGI [50]: 19.1 µM; TGI [12]: > 100 µM; TGI [14]: 26.8 µM; TGI [15]: 23.2 µM; TGI [52]: 31.6 µM; TGI [16]: 16.2 µM; TGI [53]: 28.8 µM; TGI [17]: 26.7 µM; TGI [18]: 31.5 µM; TGI [19]: 29.3 µM; TGI [20]: 23 µM; TGI [22]: 32.2 µM; TGI [23]: 25 µM; TGI [24]: > 100 µM; TGI [25]: 28.7 µM; TGI [26]: 25.7 µM; TGI [27]: 25.1 µM; TGI [28]: 35.3 µM; TGI [29]: 22.7 µM; TGI [30]: 9.44 µM; TGI [31]: 13.6 µM; TGI [55]: 24.9 µM; TGI [32]: 40.6 µM; TGI [33]: 8.05 µM; TGI [56]: 24.9 µM; TGI [34]: 28.4 µM; TGI [35]: 22.8 µM; TGI [36]: 15.9 µM; TGI [37]: > 100 µM; TGI [38]: 28.9 µM; TGI [57]: > 100 µM; TGI [39]: 33.8 µM; TGI [40]: 13.4 µM; TGI [41]: 13.7 µM; TGI [42]: 10.2 µM; TGI [43]: 31.2 µM; TGI [44]: 33.1 µM; TGI [45]: > 100 µM; TGI [46]: 4.7 µM

Which results are given for `CC1=C(C(=O)CC(=O)C(=O)Nc2ccccc2)Sc2ccccc2N1`?
TGI [1]: > 100 µM; TGI [2]: > 100 µM; TGI [59]: > 100 µM; TGI [3]: > 100 µM; TGI [4]: > 100 µM; TGI [6]: > 100 µM; TGI [7]: > 100 µM; TGI [8]: > 100 µM; TGI [49]: > 100 µM; TGI [9]: > 100 µM; TGI [10]: > 100 µM; TGI [50]: > 100 µM; TGI [12]: > 100 µM; TGI [13]: > 100 µM; TGI [14]: > 100 µM; TGI [51]: > 100 µM; TGI [15]: > 100 µM; TGI [52]: > 100 µM; TGI [16]: > 100 µM; TGI [17]: > 100 µM; TGI [18]: > 100 µM; TGI [19]: > 100 µM; TGI [20]: > 100 µM; TGI [21]: > 100 µM; TGI [22]: > 100 µM; TGI [24]: > 100 µM; TGI [25]: > 100 µM; TGI [27]: > 100 µM; TGI [28]: > 100 µM; TGI [29]: > 100 µM; TGI [30]: > 100 µM; TGI [31]: > 100 µM; TGI [55]: > 100 µM; TGI [32]: > 100 µM; TGI [33]: > 100 µM; TGI [56]: > 100 µM; TGI [34]: > 100 µM; TGI [35]: > 100 µM; TGI [36]: > 100 µM; TGI [37]: > 100 µM; TGI [38]: > 100 µM; TGI [57]: > 100 µM; TGI [39]: > 100 µM; TGI [40]: > 100 µM; TGI [41]: > 100 µM; TGI [42]: > 100 µM; TGI [43]: > 100 µM; TGI [44]: > 100 µM; TGI [45]: > 100 µM; TGI [46]: > 100 µM; TGI [47]: > 100 µM; TGI [58]: > 100 µM; TGI [48]: > 100 µM
